Data on 19 molecules can be found in patent publication US9321764B2, “Dihydro-pyrrolopyridinone inhibitors” (AbbVie Inc., priority 2013, dated 2016).

Some results are limits rather than exact numbers.

One experiment deals with T1, BRD4 (BDII_E352-M457) (Homo sapiens, UniProt O60885).
T1 construct: proliferation; Protocol; made in house
The experiment in a line: TR-FRET bromodomain binding assay, second bromodomain of BRD4. Particulars: His-tagged BD2, 30 nM Alexa647 probe; TR-FRET protocol A-E given per row. On the procedure:
(§1) A time-resolved fluorescence resonance energy transfer (TR-FRET) assay was used to determine the affinities of compounds of the Examples listed in Table 1 for each bromodomain of BRD4. His-tagged first (BD1: amino acids K57-E168) and second (BD2: amino acids E352-E168) bromodomains of BRD4 were expressed and purified. An Alexa647-labeled BET-inhibitor was used as the fluorescent probe in the assay.
(§2) Compound dilution series were prepared in DMSO via an approximately 3-fold serial dilution from one of the following:
(§3) Assay method D: 2.5 mM-800 nM
For Assay methods A, C, and D: Compounds were then diluted 6:100 in assay buffer (20 mM Sodium Phosphate, pH 6.0, 50 mM NaCl, 1 mM Ethylenediaminetetraacetic acid, 0.01% Triton X-100, 1 mM DL-Dithiothreitol) to yield 3× working solutions. […] Twelve μL of this solution were added to the assay plate to reach a final volume of 18 μL.
TR-FRET data were normalized to the means of 24 no-compound controls (“high”) and 8 controls containing 1 μM un-labeled probe (“low”). Percent inhibition was plotted as a function of compound concentration and the data were fit with the 4 parameter logistic equation to obtain IC50s Inhibition constants (Ki) were calculated from the IC50s, probe Kd and probe concentration. Typical Z′ values were between 0.65 and 0.75.
A general note: Time-resolved FRET reads energy transfer from a long-lived donor to a nearby acceptor.

The target of another experiment is T2, BRD4 (BDI_K57-E168) (Homo sapiens, UniProt O60885).
T2 construct: BD1: amino acids K57-E168; made in house
The experiment in a line: TR-FRET bromodomain binding assay, first bromodomain of BRD4. Particulars: His-tagged BD1, 100 nM Alexa647 probe; TR-FRET protocol A-E given per row. The procedure:
as §1, §2
Assay method A: 250 μM-4.2 nM
Assay method B: 0.47 mM to 7.8 nM
Assay method C: 500 μM-8.5 nM
as §3
Assay method E: 0.047 mM to 0.78 nM or 5-fold serial dilution from Assay method D
For Assay methods A, C, and D: Compounds were then diluted 6:100 in assay buffer (20 mM Sodium Phosphate, pH 6.0, 50 mM NaCl, 1 mM Ethylenediaminetetraacetic acid, 0.01% Triton X-100, 1 mM DL-Dithiothreitol) to yield 3× working solutions. Six microliters (μL) of the working solution was then transferred to white, low-volume assay plates (Costar #3673). A 1.5× assay mixture containing His-tagged bromodomain, Europium-conjugated anti-His antibody (Invitrogen PV5596) and the Alexa-647-conjugated probe molecule was also prepared. Twelve μL of this solution were added to the assay plate to reach a final volume of 18 μL.
For Assay methods B and E: Compound dilutions were added directly into white, low-volume assay plates (Perkin Elmer Proxiplate 384 Plus #6008280) using a Labcyte Echo in conjunction with Labcyte Access and Thermo Multidrop CombinL robotics. Compounds were then suspended in eight microliters (μL) of assay buffer (20 mM Sodium Phosphate, pH 6.0, 50 mM NaCl, 1 mM Ethylenediaminetetraacetic acid disodium salt dihydrate, 0.01% Triton X-100, 1 mM DL-Dithiothreitol) containing His-tagged bromodomain, Europium-conjugated anti-His antibody (Invitrogen PV5596) and Alexa-647-conjugated probe.
The final concentration of 1× assay mixture for assay methods A, B, C, D, and E contains 2% DMSO, 8 nM His-tagged bromodomain, 1 nM Europium-conjugated anti-His-tag antibody and 100 nM or 30 nM probe (for BDI or BDII, respectively) and compound concentration in the range of: 5 μM-85 pM for method A, 9.19 μM 150 pM for method B, 10 μM-169 pM for method C, 50 μM-16 nM for method D, and 0.92 μM-15 pM for method E.
After a one-hour equilibration at room temperature, TR-FRET ratios were determined using an Envision multilabel plate reader (Ex 340, Em 495/520).
TR-FRET data were normalized to the means of 24 no-compound controls (“high”) and 8 controls containing 1 μM un-labeled probe (“low”). Percent inhibition was plotted as a function of compound concentration and the data were fit with the 4 parameter logistic equation to obtain IC50s Inhibition constants (Ki) were calculated from the IC50s, probe Kd and probe concentration. Typical Z′ values were between 0.65 and 0.75. The minimum significant ratio was determined to evaluate assay reproducibility (Eastwood et al., (2006) J Biomol Screen, 11: 253-261). The MSR was determined to be 2.03 for BDI and 1.93 for BDII, and a moving MSR (last six run MSR overtime) for both BDI and BDII was typically <3.

A word on the Ki: it is a dissociation constant, usually derived from enzyme kinetics or from competition with a known ligand. A lower Ki goes with higher affinity. As for `CCS(=O)(=O)Nc1ccc(Oc2ccc(F)cc2F)c(-c2cn(C)c3c(=O)[nH]c(C(=O)N4CCC(O)CC4)cc23)c1` [Example 194, N-[4-(2,4-difluorophenoxy)-3-{5-[(4-hydroxypiperidin-1-yl)carbonyl]-1-methyl-7-oxo-6,7-dihydro-1H-pyrrolo[2,3-c]pyridin-3-yl]phenyl}ethanesulfonamide], the inhibition constant (Ki) amounted to 68.5 nM at BRD4 (BDII_E352-M457) and 10.5 nM at BRD4 (BDI_K57-E168).
In the case of `Cn1cc(-c2cc(CNS(=O)(=O)c3cc(Cl)sc3Cl)ccc2Oc2ccc(F)cc2F)c2cc[nH]c(=O)c21` [Example 138, 2,5-dichloro-N-[4-(2,4-difluorophenoxy)-3-(1-methyl-7-oxo-6,7-dihydro-1H-pyrrolo[2,3-c]pyridin-3-yl)benzyl]thiophene-3-sulfonamide], the Ki at BRD4 (BDII_E352-M457) was > 4000 nM; on BRD4 (BDI_K57-E168), 1150 nM.
Regarding `Cn1cc(-c2cc(NS(C)(=O)=O)ccc2Oc2ccc(F)cc2F)c2cc[nH]c(=O)c21` [Example 2, N-[4-(2,4-difluorophenoxy)-3-(1-methyl-7-oxo-6,7-dihydro-1H-pyrrolo[2,3-c]pyridin-3-yl)phenyl]methanesulfonamide], the Ki at BRD4 (BDII_E352-M457) stood at 13 nM; on BRD4 (BDI_K57-E168), 6.2 nM.
On to `COc1ccc(S(C)(=O)=O)cc1-c1cn(C)c2c(=O)[nH]ccc12` [Example 21, 3-[2-methoxy-5-(methylsulfonyl)phenyl]-1-methyl-1,6-dihydro-7H-pyrrolo[2,3-c]pyridin-7-one], for which the values for the inhibition constant (Ki) on BRD4 (BDII_E352-M457) and on BRD4 (BDI_K57-E168) were 721 nM and 438 nM, respectively.
As for `Cn1cc(-c2cc(NC(=O)CCc3ccccc3)ccc2Oc2ccc(F)cc2F)c2cc[nH]c(=O)c21` [Example 152, N-[4-(2,4-difluorophenoxy)-3-(1-methyl-7-oxo-6,7-dihydro-1H-pyrrolo[2,3-c]pyridin-3-yl)phenyl]-3-phenylpropanamide], the Ki on BRD4 (BDII_E352-M457) is 95.3 nM; on BRD4 (BDI_K57-E168), 141 nM.
For `CCS(=O)(=O)c1cnc(Oc2ccc(F)cc2F)c(-c2cn(C)c3c(=O)[nH]ccc23)c1` [Example 59, 3-[2-(2,4-difluorophenoxy)-5-(ethylsulfonyl)pyridin-3-yl]-1-methyl-1,6-dihydro-7H-pyrrolo[2,3-c]pyridin-7-one] the same measures were 600 nM and 606 nM.
The matching figures for `Cn1cc(-c2ccccc2NCC2CC2)c2cc[nH]c(=O)c21` [Example 142, 3-{2-[(cyclopropylmethyl)amino]phenyl}-1-methyl-1,6-dihydro-7H-pyrrolo[2,3-c]pyridin-7-one]: 2310 nM and 870 nM.
Consider `COC(=O)/C=C/N(c1ccc(F)cc1)c1ccc(CS(C)(=O)=O)cc1-c1cn(C)c2c(=O)[nH]ccc12` [Example 166, methyl (2E)-3-[(4-fluorophenyl) {2-(1-methyl-7-oxo-6,7-dihydro-1H-pyrrolo[2,3-c]pyridin-3-yl)-4-[(methylsulfonyl)methyl]phenyl}amino]prop-2-enoate], for which the values for the Ki at BRD4 (BDII_E352-M457) and at BRD4 (BDI_K57-E168) were 47 nM and 109 nM, respectively.
In the case of `Cn1cc(-c2cc(NC(=O)Cc3ccc4c(c3)CCCO4)ccc2Oc2ccc(F)cc2F)c2cc[nH]c(=O)c21` [Example 162, N-[4-(2,4-difluorophenoxy)-3-(1-methyl-7-oxo-6,7-dihydro-1H-pyrrolo[2,3-c]pyridin-3-yl)phenyl]-2-(3,4-dihydro-2H-chromen-6-yl)acetamide], the inhibition constant (Ki) on BRD4 (BDII_E352-M457) was 183 nM; on BRD4 (BDI_K57-E168), 146 nM.
As for `Cn1cc(-c2cc(CN)ccc2Oc2ccc(F)cc2F)c2cc[nH]c(=O)c21` [Example 136, 3-[5-(aminomethyl)-2-(2,4-difluorophenoxy)phenyl]-1-methyl-1,6-dihydro-7H-pyrrolo[2,3-c]pyridin-7-one], the results for the Ki at BRD4 (BDII_E352-M457) and on BRD4 (BDI_K57-E168) were 1320 nM and 1090 nM, respectively.
As for `Cn1cc(-c2cc(CNC3CCNCC3)ccc2Oc2ccc(F)cc2F)c2cc[nH]c(=O)c21` [Example 112, 3-{2-(2,4-difluorophenoxy)-5-[(piperidin-4-ylamino)methyl]phenyl}-1-methyl-1,6-dihydro-7H-pyrrolo[2,3-c]pyridin-7-one], the inhibition constant Ki on BRD4 (BDII_E352-M457) and on BRD4 (BDI_K57-E168) was 1050 nM each time.
Consider `CCS(=O)(=O)Nc1ccc(Oc2ccc(F)cc2F)c(-c2cn(C)c3c(=O)[nH]c(CN4CCOCC4)cc23)c1` [Example 182, N-{4-(2,4-difluorophenoxy)-3-[1-methyl-5-(morpholin-4-ylmethyl)-7-oxo-6,7-dihydro-1H-pyrrolo[2,3-c]pyridin-3-yl]phenyl}ethanesulfonamide], for which the Ki on BRD4 (BDII_E352-M457) is 99.9 nM; at BRD4 (BDI_K57-E168) it was 29.2 nM.
In the case of `Cn1cc(-c2cc(NS(C)(=O)=O)c(Oc3ccc(F)cc3F)cc2F)c2cc[nH]c(=O)c21` [Example 12, N-[2-(2,4-difluorophenoxy)-4-fluoro-5-(1-methyl-7-oxo-6,7-dihydro-1H-pyrrolo[2,3-c]pyridin-3-yl)phenyl]methanesulfonamide], the Ki on BRD4 (BDII_E352-M457) turned out to be 1170 nM; on BRD4 (BDI_K57-E168), 684 nM.
The matching figures for `CCS(=O)(=O)c1ccc(Oc2ccc(OC)cc2Cl)c(-c2cn(C)c3c(=O)[nH]ccc23)c1` [Example 85, 3-[2-(2-chloro-4-methoxyphenoxy)-5-(ethylsulfonyl)phenyl]-1-methyl-1,6-dihydro-7H-pyrrolo[2,3-c]pyridin-7-one]: 17 nM and 44 nM.
With `CCS(=O)(=O)c1ccc(Oc2cccc(Cl)c2Cl)c(-c2cn(C)c3c(=O)[nH]ccc23)c1` [Example 84, 3-[2-(2,3-dichlorophenoxy)-5-(ethylsulfonyl)phenyl]-1-methyl-1,6-dihydro-7H-pyrrolo[2,3-c]pyridin-7-one], the results for the Ki on BRD4 (BDII_E352-M457) and on BRD4 (BDI_K57-E168) were 25 nM and 55 nM, respectively.
For `CCS(=O)(=O)c1ccc(Oc2ccc(C(F)(F)F)cc2)c(-c2cn(C)c3c(=O)[nH]ccc23)c1` [Example 77, 3-{5-(ethylsulfonyl)-2-[4-(trifluoromethyl)phenoxy]phenyl}-1-methyl-1,6-dihydro-7H-pyrrolo[2,3-c]pyridin-7-one] the same measures were 139 nM and 62 nM.
As to `Cc1noc(C)c1-c1cc2c(-c3cc(CS(C)(=O)=O)ccc3Oc3ccc(F)cc3F)cn(C)c2c(=O)[nH]1` [Example 94, 3-{2-(2,4-difluorophenoxy)-5-[(methylsulfonyl)methyl]phenyl}-5-(3,5-dimethyl-1,2-oxazol-4-yl)-1-methyl-1,6-dihydro-7H-pyrrolo[2,3-c]pyridin-7-one], the Ki on BRD4 (BDII_E352-M457) came to 1870 nM; at BRD4 (BDI_K57-E168), 168 nM.
For `Cc1ncc(CC(=O)Nc2ccc(Oc3ccc(F)cc3F)c(-c3cn(C)c4c(=O)[nH]ccc34)c2)s1` [Example 163, N-[4-(2,4-difluorophenoxy)-3-(1-methyl-7-oxo-6,7-dihydro-1H-pyrrolo[2,3-c]pyridin-3-yl)phenyl]-2-(2-methyl-1,3-thiazol-5-yl)acetamide], the Ki at BRD4 (BDII_E352-M457) was 81.3 nM; at BRD4 (BDI_K57-E168) it was 24 nM.
`Cn1cc(-c2cc(S(C)(=O)=O)ccc2Oc2ccccc2)c2cc[nH]c(=O)c21` [Example 18, 1-methyl-3-[5-(methylsulfonyl)-2-phenoxyphenyl]-1,6-dihydro-7H-pyrrolo[2,3-c]pyridin-7-one]: the Ki at BRD4 (BDII_E352-M457) turned out to be 21 nM; on BRD4 (BDI_K57-E168) it was 12 nM.
